Experimental data published in patent publication US5741669A, “Insecticidally effective peptides” (FMC Corporation, priority 1995, dated 1998).

Assays:
[1] = test system: corn earworm, Heliothis (Helicoverpa) zea (CEW); assay: Two-dose injection assay of toxins in CEW larvae; assay type: in vivo
Excerpt: (§1) The insects tested were last instar, laboratory reared larvae of the tobacco budworm, Heliothis virescens (TBW); the beet armyworm, Spodoptera exigua (BAW); the cabbage looper,Trichoplusia ni (CL); the corn earworm, Heliothis (Helicoverpa) zea (CEW); the fall armyworm, Spodoptera frugiperda (FAW); the soybean looper, Pseudoplusia includens (SBL); the European corn borer, Ostrinia nubilalis (ECB); and the diamondback moth, Plutella xylostella (DBM). Adult house flies, Musca domestica (HF) and adult Southern corn rootworm beetles, Diabrotica undecimpunctata (SRC) were also tested. The first six species (TBW, BAW, CL, CEW, FAW, and SBL) are in the family Noctuidae of the order Lepidoptera. O. nubilalis and P. xylostella are lepidopterans in the families Pyralidae and Plutellidae, respectively. […] Whole venom doses were calculated in terms of WVE. […] Doses of components from early fractionations were also calculated in terms of WVE; doses of purified toxins were calculated from ultraviolet absorbances at 280 nm. […]
(§2) Full dose-response assays were carried out in TBW (n=6), BAW (n=6), CL (n=6) and SCR (n=5). […] LD50 values were determined by log-probit analysis basic program for microcomputer. […] Because probit analysis requires two responses that are neither zero nor 100 percent, […] values in several cases had to be estimated rather than calculated directly. […]

[2] = test system: fall armyworm, Spodoptera frugiperda (FAW); assay: Two-dose injection assay of toxins in FAW larvae; assay type: in vivo
Excerpt: as §1, §2

[3] = test system: diamondback moth, Plutella xylostella (DBM); assay: Injection assay of toxin in DBM larvae; assay type: in vivo
Excerpt: as §1, §2

[4] = test system: beet armyworm, Spodoptera exigua (BAW); assay: Injection bioassay of whole venom and purified toxins in BAW larvae; assay type: in vivo; details: S. exigua (BAW), estimate based on 50% mortality at this dose, all other responses 0% or 100%
Excerpt: as §1, §2

[5] = test system: soybean looper, Pseudoplusia includens (SBL); assay: Two-dose injection assay of toxins in SBL larvae; assay type: in vivo
Excerpt: as §1, §2

[6] = test system: cabbage looper, Trichoplusia ni (CL); assay: Injection bioassay of whole venom and purified toxins in CL larvae; assay type: in vivo; details: T. ni (CL), log-probit analysis
Excerpt: as §1, §2

[7] = test system: European corn borer, Ostrinia nubilalis (ECB); assay: Two-dose injection assay of toxins in ECB larvae; assay type: in vivo
Excerpt: as §1, §2

male Swiss-Webster mice = assay: Mammalian toxicity test by injection in mice; assay type: in vivo; details: 30 μg, male Swiss-Webster mice (~30 gm)
Experimental: (§3) Injection of 30 μg of NPS-326 into the cerebral ventricles (n=3) or peritoneum (n=2) of male Swiss-Webster mice (~30 gm) had no effect. The effects of NPS-331 in mammalian systems were further tested by in vitro rat brain slice electrophysiology. […] The assay is capable of detecting a variety of effects on various mammalian ion channels and neurotransmitter receptors (Dunwiddie, in Electrophysiological Techniques in Pharmacology, Alan R. Liss, Inc., New York (1986), pp. 65-90).

[8] = test system: tobacco budworm, Heliothis virescens (TBW); assay: Injection bioassay of whole venom and purified toxins in TBW larvae; assay type: in vivo; details: for LD50: H. virescens (TBW), log-probit analysis
Excerpt: The insects tested were last instar, laboratory reared larvae of the tobacco budworm, Heliothis virescens (TBW); the beet armyworm, Spodoptera exigua (BAW); the cabbage looper,Trichoplusia ni (CL); the corn earworm, Heliothis (Helicoverpa) zea (CEW); the fall armyworm, Spodoptera frugiperda (FAW); the soybean looper, Pseudoplusia includens (SBL); the European corn borer, Ostrinia nubilalis (ECB); and the diamondback moth, Plutella xylostella (DBM). Adult house flies, Musca domestica (HF) and adult Southern corn rootworm beetles, Diabrotica undecimpunctata (SRC) were also tested. The first six species (TBW, BAW, CL, CEW, FAW, and SBL) are in the family Noctuidae of the order Lepidoptera. O. nubilalis and P. xylostella are lepidopterans in the families Pyralidae and Plutellidae, respectively. M. domestica and D. undecimpunctata are in the orders Diptera and Coleoptera, respectively. All species tested are important pests in crop production except M. domestica which is a nuisance pest in agricultural and urban settings. All samples, whether whole venom or venom fractions, were prepared in filter-sterilized physiological saline, pH 6.5. Samples were administered by injection into the hemocoel at or near the lateral midline of the fourth abdominal segment; the needle was inserted at a shallow angle to avoid injury to internal organs. Whole venom doses were calculated in terms of WVE. One WVE is the amount of any material which is normally present in one microliter of whole milked venom. Doses of components from early fractionations were also calculated in terms of WVE; doses of purified toxins were calculated from ultraviolet absorbances at 280 nm. Scopes, Anal. Biochem., 59:277 (1974). Control insects were given an equivalent volume of buffered saline solution.
Full dose-response assays were carried out in TBW (n=6), BAW (n=6), CL (n=6) and SCR (n=5). Other species were challenged with one or both toxins in a two-dose assay for purposes of estimating the toxins' activities in a variety of insects. LD50 values were determined by log-probit analysis basic program for microcomputer. Raymond, Set. Ent. med et Parasitol., 22:117 (1985). The insecticidal Tegenaria toxins generally have quite steep dose-response curves; frequently there is less than a 10-fold difference between a 100% lethal dose and a dose causing no mortality. Because probit analysis requires two responses that are neither zero nor 100 percent, […] values in several cases had to be estimated rather than calculated directly. In every case, however, there was an obvious and statistically significant dose response.

[9] = test system: Southern corn rootworm beetles, Diabrotica undecimpunctata (SCR); assay: Injection bioassay of toxins in adult Southern corn rootworm beetles; assay type: in vivo; details: D. undecimpunctata (SCR), NPS-326 value estimated (highest dose 100% mortality, rest none)
Excerpt: as §1, §2

[10] = test system: house flies, Musca domestica (HF); assay: Injection bioassay of toxins in adult house flies; assay type: in vivo; details: M. domestica (HF), estimate from two-dose assay (100% and 30% mortality; control 10%)
Excerpt: as §1, §2

[11] = test system: rat hippocampal preparation, the Schaffer collateral-CA 1 pyramidal cell synapse; assay: In vitro rat brain slice electrophysiology; assay type: cell-based; details: applied at 1 μm
Experimental: as §3

## NPS-326 (EPDEICRARMTHKEFNYKSNVCNGCGDQVAACEAECFRNDVYTACHEAQK)
[1]
  estimated LD50: 0.8 nmol/gm
[2]
  estimated LD50: 5.3 nmol/gm
[3]; 1.1 nmol/gm, within 24 hours
  treated larvae developing tremors, spasms and convulsions: 90%
[3]; DBM larvae
  estimated LD50: < 1.1 nmol/gm
[4]
  LD50: ~0.88 nmol/gm
[5]
  estimated LD50: 1.55 nmol/gm
[6]
  LD50: 0.78 nmol/gm
[7]
  estimated LD50: 1.1 nmol/gm
Male Swiss-Webster mice; n=2
  effect of injection into the peritoneum: no effect
Male Swiss-Webster mice; n=3
  effect of injection into the cerebral ventricles: no effect
[8]
  LD50: 0.89 nmol/gm
[8]; TBW, venom-derived toxin
  approximate LD50: ~5.7 µg/g
[9]
  LD50: ~2.0 nmol/gm

## NPS-331 (EPDEICRARMTNKEFTYKSNVCNNCGDQVAACEAECFRNDVYTACHEAQK)
[10]
  LD50: ~0.7 nmol/gm
[11]
  effect on evoked synaptic responses: without effect
[1]
  estimated LD50: 1 nmol/gm
[2]
  estimated LD50: 1.84 nmol/gm
[4]
  LD50: ~0.29 nmol/gm
[5]
  estimated LD50: 1.05 nmol/gm
[6]
  LD50: 0.22 nmol/gm
[7]
  estimated LD50: 0.64 nmol/gm
[8]
  LD50: 2.6 nmol/gm
[9]
  LD50: 0.57 nmol/gm

B1: NPS-373 (protein)
chain: MKLQLMICLVLLPCFFCEPDEICRARMTNKEFTYKSNVCNGCGDQVAACEAECFRNDVYTACHEAQKG
[8]; 7.7 μg/g, TBW, n=6
  treated larvae paralyzed: 50%
